The test system of the experiment is Mycogone perniciosa. As to the kind of experiment: Antimicrobial activity against Mycogone perniciosa isolates assessed as inhibition of mycelial growth after 12 days. It counts as functional. As to conditions: 288 h, read-out: ED50 (the source's name).

Here are results for four compounds from ChEMBL document CHEMBL3045411, “Efficacy and effects on yield of different fungicides for control of wet bubble disease of mushroom caused by the mycoparasite Mycogone perniciosa” (2010).

Each structure is given as a SMILES string. Converted amounts (≈) assume the structure as drawn.

Consider `COC(=O)Nc1nc2ccccc2[nH]1` [CARBENDAZIM], for which the EC50 turned out to be 0.065 µg/mL (≈ 0.34 µM).
`CC(C)NC(=O)N1CC(=O)N(c2cc(Cl)cc(Cl)c2)C1=O` [IPRODIONE]: the EC50 was 2.69 µg/mL (≈ 8.14 µM).
`c1ccc2[nH]c(-c3cscn3)nc2c1` [THIABENDAZOLE]: the EC50 was 0.225 µg/mL (≈ 1.12 µM).
The result for `COC(=O)NC(=S)Nc1ccccc1NC(=S)NC(=O)OC` [THIOPHANATE METHYL] reads 0.773 µg/mL (≈ 2.26 µM).
